Among the data in patent US6605637B1, “Lipoic acid derivatives, their preparation, and pharmaceutical compositions containing them” (Societe de Conseils de Recherches et d'Applications …, priority 1999, dated 2003) are EC50 values, retold here.

Where a name gives a salt, the structure may show the parent alone.

This experiment has as its system HT-22 cells. Briefly: Protection of HT-22 cells from oxidation stress induced by glutamate (MTT viability). In kind it is cell-based. The note with it: HT-22 mouse hippocampal line; glutamate 5 mM; viability after 24 h by MTT. How it is done:
Study of the Effects on the Oxidation Stress Induced by Glutamate on Cells in Culture (HT-22).
The inhibitory activity of the products of the invention is determined by measuring their ability to protect the cells of a mouse hippocampal line (HT-22) of an oxidation stress caused by glutamate. The biosynthesis of glutathione, an essential element of cell detoxification of free radicals, requires the active transport of cystine to the interior of the cell. The glutamate by opposing the penetration of cystine causes a reduction in the level of glutathione which leads to the death of the cell due to oxidation stress (Davis, J. B. and Maher, P., Brain Res., (1994) 652: 169-173; Murphy, T. H. et al., Neuron, (1989) 2: 1547-1558). The cells are cultured at 37° C. in a DMEM medium with 10% of foetal calf serum added to it. The tests are carried out in 96-well plates containing 5000 cells per well. The glutamate (5 mM) is added to the medium containing or not containing the products to be tested. The cell viability is tested after 24 h by the MTT method (Hansen, M. B. et al., J Immunol. Methods (1989), 119, 203-210). The ability of the compounds to protect the cells from the toxic action of the glutamate is estimated in EC50, calculated relative to the viability of cells which have not been subjected to the action of glutamate considered as 100% viability.
Take `N=C(Nc1ccc(NC(=O)CCCCC2CCSS2)cc1)c1cccs1` (stereo not shown) [Example 1, N-{4-[[(2-Thienyl)(imino)methyl]amino]phenyl}-1,2-dithiolane-3-pentanamide Hydrochloride]: the EC50 was less than 30 µM.

As to `N=C(Nc1ccc(CCNC(=O)CCCCC2CCSS2)cc1)c1cccs1` (stereo not shown) [Example 2, N-{2-{4[[(2-Thienyl)(imino)methyl]amino]phenyl}ethyl}-1,2-dithiolane-3-pentanamide], the EC50 was less than 30 µM. In turn, `N=C(Nc1ccc(CCNC(=O)CC2CCSS2)cc1)c1cccs1` (stereo not shown) [Example 3, N-{2-{4[[(2-Thienyl)(imino)methyl]amino]phenyl}ethyl}-1,2-dithiolane-3-acetamide Hydrochloride] registered an EC50 of less than 30 µM.

In turn, `Cc1cc(N)nc(CCCCNC(=O)CC2CCSS2)c1` (stereo not shown) [Example 5, N-[4-(6-Amino-4-methyl-2-pyridinyl)butyl]-1,2-dithiolane-3-acetamide Fumarate] came in with an EC50 of less than 30 µM.

The EC50 is the concentration at which the effect is half-maximal. The low end stands for higher potency in that assay, the high end for lower potency in that assay.
